Results on 20 compounds are retold here after US6340687B1, “Substituted tetrahydro-pyrimidine-2(1H)-thione HDL-C elevators useful as antiatherosclerotic agents” (American Home Products Corporation, priority 1997, dated 2002).

For one data set, the system named is HDL cholesterol. In words: in vivo standard pharmacological test procedure measuring elevation of HDL cholesterol levels in cholesterol/cholic acid-fed rats. The note with it: serum, eight days of treatment; for change in vivo at 100 mg/kg / HDL Cholesterol Level Increase (%): dose 100 mg/kg mixed in diet; for change in vivo at 50 mg/kg: dose 50 mg/kg mixed in diet. Also on record: species or system Male Sprague-Dawley rats. How it is done: Representative compounds of this invention were evaluated in an in vivo standard pharmacological test procedure which measured the ability of the compounds of this invention to elevate HDL cholesterol levels. The following briefly describes the procedure used and results obtained. Male Sprague-Dawley rats weighing 200-225 g were housed two per cage and fed Purina Rodent Chow Special Mix 5001-S supplemented with 0.25% cholic acid and 1.0% cholesterol and water ad libitum for 8 days. Each test substance was administered to a group of six rats fed the same diet with the test diet mixed in as 0.005-0.1% of the total diet. Body weight and food consumption were recorded prior to diet administration and at termination. Typical doses of the test substances were 5-100 mg/kg/day.
At termination, blood was collected from anesthetized rats and the serum was separated by centrifugation. Total serum cholesterol was assayed using the Sigma Diagnostics enzymatic kit for the determination of cholesterol, Procedure No. 352, modified for use with ninety-six well microtiter plates. After reconstitutiton with water the reagent contains 300 U/l cholesterol oxidase, 100 U/l cholesterol esterase, 1000 U/l horse radish peroxidase, 0.3 mmol/l 4-aminoantipyrine and 30.0 mmol/l p-hydroxybenzene sulfonate in a pH 6.5 buffer. In the reaction cholesterol was oxidized to produce hydrogen peroxide which was used to form a quinoneimine dye. The concentration of dye formed was measured spectrophotometrically by absorbance at 490 nm after incubation at 25° C. for 30 minutes. The concentration of cholesterol was determined for each serum sample relative to a commercial standard from Sigma.
HDL cholesterol concentrations in serum were determined by separation of lipoprotein classes by fast protein liquid chromatography (FPLC) by a modification of the method of Kieft et al., (J. Lipid Res., 32, 859-866 (1991). Using this methodology, […] of serum was injected onto Superose 12 and Superose 6 (Pharmacia), in series, with a column buffer of 0.05 M Tris (2-amino-2-hydroxymethyl-1,3-propanediol) and 0.15 M sodium chloride at a flow rate of 0.5 mL/min. The eluted sample was mixed on line with Boehringer-Mannheim cholesterol reagent pumped at 0.2 mL/min. The combined eluents were mixed and incubated on line through a knitted coil (Applied Biosciences) maintained at a temperature of 45° C. The eluent was monitored by measuring absorbance at 490 nm and gives a continuous absorbance signal proportional to the cholesterol concentration. The relative concentration for each lipoprotein class was calculated as the percent of total absorbance. HDL cholesterol concentration in serum was calculated as the percent of total cholesterol as determined by FPLC multiplied by the total serum cholesterol concentration.
In Examples 5-7, 9, 10 and 12-20 the test compounds were administered at a dose of 100 mg/kg. In Examples 1, 2, 3 and 11, the test compounds were administered at a dose of 50 mg/kg. In Example 4, the test compound was administered at a dose of 46 mg/kg and in Example 8 at a dose of 90 mg/kg. The duration of treatment for all examples was eight days.

[1] abbreviates: Rattus norvegicus, feed or water, 192 h, read-out: HDL Cholesterol Level Increase (%).

Compound `C=CCN1CCCN(c2c(C)cccc2Cl)C1=S` [Example 12, 3-Allyl-1-(6-chloro-2-methyl-phenyl)-3,4,5,6-tetrahydro-pyrimidine-2(1H)-thione] came in with a melting point of 82 to 84 °C. Also, in the data set on HDL cholesterol (setting [1]), the change in vivo at 100 mg/kg was 19%.

`Cc1ccc(Cl)cc1N1CCCN(C)C1=S` [Example 9, 1-(5-Chloro-2-methyl-phenyl)-3-methyl-3,4,5,6-tetrahydro-pyrimidine-2(1H)-thione] yielded a melting point of 143 to 145 °C. Also, the change in vivo at 100 mg/kg in the data set with HDL cholesterol (setting [1]) is 143%.

Take `Cc1cccc(C)c1N1CCCNC1=S` [Example 4, 1-(2,6-Dimethyl-phenyl)-3,4,5,6-tetrahydro-pyrimidine-2(1H)-thione]: the melting point was 249 to 251 °C. The change in vivo at 46 mg/kg in the data set with HDL cholesterol (Rattus norvegicus, feed or water, 192 h, dose 46 mg/kg mixed in diet, read-out: HDL Cholesterol Level Increase (%)) amounted to 34%.

As for `Cc1ccc(Cl)cc1N1CCCN(C(C)C)C1=S` [Example 6, 1-(5-Chloro-2-methyl-phenyl)-3-isopropyl-3,4,5,6-tetrahydro-pyrimidine-2(1H)-thione], the melting point lay in the range of 176 to 178 °C. Moreover, in the data set with HDL cholesterol (setting [1]), the change in vivo at 100 mg/kg worked out at 137%.

Regarding `CCN1CCCN(c2cc(Cl)ccc2C)C1=S` [Example 5, 1-(5-Chloro-2-methyl-phenyl)-3-ethyl-3,4,5,6-tetrahydro-pyrimidine-2(1H)-thione], the melting point fell in the range of 111 to 112 °C. In addition, the change in vivo at 100 mg/kg in the data set on HDL cholesterol (setting [1]) is 183%.

For `Cc1ccc(Cl)cc1N1CCCN(C2CCC2)C1=S` [Example 19, 1-(5-Chloro-2-methyl-phenyl)-3-cyclobutyl-3,4,5,6-tetrahydro-pyrimidine-2(1H)-thione], the melting point was in the range of 152 to 154 °C. For the same compound, the change in vivo at 100 mg/kg in the data set on HDL cholesterol (setting [1]) is 37%.

Turning to `CCN1CCCN(c2ccc(Cl)cc2C)C1=S` [Example 3, 1-(4-Chloro-2-methyl-phenyl)-3-ethyl-3,4,5,6-tetrahydro-pyrimidine-2(1H)-thione], the melting point is 116 to 118 °C. The change in vivo at 50 mg/kg in the data set with HDL cholesterol (setting [1]) is 152%.

With `Cc1cc(Cl)ccc1N1CCCN(C)C1=S` [Example 11, 1-(4-Chloro-2-methyl-phenyl)-3-methyl-3,4,5,6-tetrahydro-pyrimidine-2(1H)thione], the melting point lay in the range of 143 to 145 °C. The change in vivo at 50 mg/kg with HDL cholesterol (setting [1]) was found to be 86%.

As for `CCN1CCCN(c2c(C)cccc2Cl)C1=S` [Example 16, 1-(6-Chloro-2-methyl-phenyl)-3-ethyl-3,4,5,6-tetrahydro-pyrimidine-2(1H)-thione], the melting point lay within 88 to 90 °C. Besides, in the data set with HDL cholesterol (setting [1]), the change in vivo at 100 mg/kg was 85%.

The compound `S=C1NCCCN1c1ccccc1` [Example 2, 1-Phenyl-3,4,5,6-tetrahydro-pyrimidine-2(1H)-thione] displayed a melting point of 211 to 212 °C. In addition, in the data set on HDL cholesterol (setting [1]), the change in vivo at 50 mg/kg stood at 20%.

As to `Cc1cc(Cl)ccc1N1CCCN(CC(C)C)C1=S` [Example 17, 1-(4-Chloro-2-methyl-phenyl)-3-isobutyl-3,4,5,6-tetrahydro-pyrimidine-2(1H)-thione], the melting point is 88 to 90 °C. The change in vivo at 100 mg/kg with HDL cholesterol (setting [1]) worked out at 12%.

On to `Cc1ccc(Cl)cc1N1CCCN(CC(C)C)C1=S` [Example 14, 1-(5-Chloro-2-methyl-phenyl)-3-isobutyl-3,4,5,6-tetrahydro-pyrimidine-2-(1H)-thione], for which, in the data set with HDL cholesterol, the “HDL Cholesterol Level Increase (%)” value is given as 66%.

`Cc1cccc(Cl)c1N1CCCN(C)C1=S` [Example 13, 1-(6-Chloro-2-methyl-phenyl)-3-methyl-3,4,5,6-tetrahydro-pyrimidine-2(1H)-thione] had a melting point of 164 to 165 °C. Besides, in the data set with HDL cholesterol (setting [1]), the change in vivo at 100 mg/kg turned out to be 81%.

Consider `C=CCN1CCCN(c2ccc(Cl)cc2C)C1=S` [Example 10, 3-Allyl-1-(4-chloro-2-methyl-phenly)-3,4,5,6-tetrahydro-pyrimidine-2(1H)-thione], for which the “HDL Cholesterol Level Increase (%)” value in the data set on HDL cholesterol is recorded as 57%.

On to `Cc1cc(Cl)ccc1N1CCCNC1=S` [Example 1, 1-(4-Chloro-2-methyl-phenyl)-3,4,5,6-tetrahydro-pyrimidine-2(1H)-thione], for which the melting point is 266 to 268 °C. For the same compound, the change in vivo at 50 mg/kg in the data set with HDL cholesterol (setting [1]) came out at 86%.

`C=CCN1CCCN(c2cc(Cl)ccc2C)C1=S` [Example 8, 3-Allyl-1-(5-chloro-2-methyl-phenyl)-3,4,5,6-tetrahydro-pyrimidine-2(1H)-thione]: the melting point fell in the range of 71 to 72 °C. In addition, the change in vivo at 90 mg/kg in the data set with HDL cholesterol (Rattus norvegicus, feed or water, 192 h, dose 90 mg/kg mixed in diet, read-out: HDL Cholesterol Level Increase (%)) stood at 21%.

As for `Cc1cccc(Cl)c1N1CCCN(C2CCC2)C1=S` [Example 18, 1-(6-Chloro-2-methyl-phenyl)-3-cyclobutyl-3,4,5,6-tetrahydro-pyrimidine-2(1H)-thione], the melting point lay within 89 to 91 °C. Besides, the change in vivo at 100 mg/kg in the data set with HDL cholesterol (setting [1]) came out at 42%.

As for `Cc1cccc(Cl)c1N1CCCN(C(C)C)C1=S` [Example 15, 1-(6-Chloro-2-methyl-phenyl)-3-isopropyl-3,4,5,6-tetrahydro-pyrimidine-2(1H)-thione], the melting point was 135 to 136 °C. In addition, the change in vivo at 100 mg/kg in the data set on HDL cholesterol (setting [1]) was determined as 86%.

In the case of `Cc1cc(Cl)ccc1N1CCCN(C(C)C)C1=S` [Example 7, 1-(4-Chloro-2-methyl-phenyl)-3-isopropyl-3,4,5,6-tetrahydro-pyrimidine-2(1H)-thione], the melting point fell in the range of 147 to 149 °C. The change in vivo at 100 mg/kg in the data set with HDL cholesterol (setting [1]) stood at 92%.

Compound `Cc1cccc(Cl)c1N1CCCN(CC(C)C)C1=S` [Example 20, 1-(6-Chloro-2-methyl-phenyl)-3-isobutyl-3,4,5,6-tetrahydro-pyrimidine-2(1H)-thione] yielded a melting point of 119 to 121 °C. Further, the change in vivo at 100 mg/kg in the data set on HDL cholesterol (setting [1]) turned out to be 24%.
